According to PubChem BioAssay (NCI):
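Compound exposure: 48 hours, 5 concentrations, 96-well plates. TGI: total growth inhibition.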

Key:
Assay in all cases: NCI tumour cell line growth inhibition, 48 h
PC-3 prostate = system: PC-3 prostate
A549 NSCLC = system: A549 NSCLC
UO-31 renal = system: UO-31 renal
HCT-15 colon = system: HCT-15 colon
UACC-62 melanoma = system: UACC-62 melanoma
MCF7 breast = system: MCF7 breast
OVCAR-4 ovarian = system: OVCAR-4 ovarian
HL-60(TB) leukemia = system: HL-60(TB) leukemia
SF-268 CNS = system: SF-268 CNS
SK-MEL-28 melanoma = system: SK-MEL-28 melanoma
COLO 205 colon = system: COLO 205 colon
HOP-92 NSCLC = system: HOP-92 NSCLC
UACC-257 melanoma = system: UACC-257 melanoma
786-0 renal = system: 786-0 renal
NCI-H23 lung = system: NCI-H23 lung
MALME-3M melanoma = system: MALME-3M melanoma
M14 melanoma = system: M14 melanoma
LOX IMVI melanoma = system: LOX IMVI melanoma
BT-549 breast = system: BT-549 breast
SK-MEL-5 melanoma = system: SK-MEL-5 melanoma
HOP-62 NSCLC = system: HOP-62 NSCLC
OVCAR-8 ovarian = system: OVCAR-8 ovarian
HCT-116 colon = system: HCT-116 colon
SK-OV-3 ovarian = system: SK-OV-3 ovarian
SF-295 CNS = system: SF-295 CNS
SW-620 colon = system: SW-620 colon
MDA-MB-435 = system: MDA-MB-435
TK-10 renal = system: TK-10 renal
KM12 colon = system: KM12 colon
T-47D breast = system: T-47D breast
U251 CNS = system: U251 CNS
NCI-H522 lung = system: NCI-H522 lung
CCRF-CEM leukemia = system: CCRF-CEM leukemia
MOLT-4 leukemia = system: MOLT-4 leukemia
DU-145 prostate = system: DU-145 prostate
NCI/ADR-RES ovarian = system: NCI/ADR-RES ovarian
HS 578T breast = system: HS 578T breast
ACHN renal = system: ACHN renal
SF-539 CNS = system: SF-539 CNS
SNB-75 CNS = system: SNB-75 CNS
NCI-H226 lung = system: NCI-H226 lung
IGROV1 ovarian = system: IGROV1 ovarian
OVCAR-3 ovarian = system: OVCAR-3 ovarian
MDA-MB-231 breast = system: MDA-MB-231 breast
HT29 colon = system: HT29 colon
OVCAR-5 ovarian = system: OVCAR-5 ovarian
SK-MEL-2 melanoma = system: SK-MEL-2 melanoma
NCI-H460 lung = system: NCI-H460 lung
CAKI-1 renal = system: CAKI-1 renal
EKVX NSCLC = system: EKVX NSCLC
A498 renal = system: A498 renal
SN12C renal = system: SN12C renal
SNB-19 CNS = system: SNB-19 CNS

Measured: TGI

C=C(C)CC1(O[Si](C)(C)C)C(=O)C(OCC)=C1OCC (stereo not drawn)
> 100 µM: all assays above
